Measured values taken from patent publication US20230120564A1, “PYRIDO[3,4-D]PYRIMIDINE DERIVATIVE AND THERAPEUTIC PHARMACEUTIC COMPOSITION COMPRISING SAME” (KOREA INSTITUTE OF SCIENCE AND TECHNOLOGY, priority 2020, published 2023).

Tests used:
[1] = test system: OCI-AML3 (N-Ras Q61L); test: Inhibition of cell proliferation (GI50); type: cell-based; details: Homo sapiens, OCI-AML-3; OCI-AML3 cell line; read-out: Proliferation inhibitory activity (GI50, μM) OCI-AML3 (N-Ras Q61L)
Experimental: (§1) The inhibitory activities of the compounds of the present invention against the proliferation of the mt-NRAS (G12D) Ba/F3 and […] (mt-NRAS) cell lines were measured and the GI50 values thereof were calculated.
Referring to the results in Table 2, it can be seen that the compound of the present invention has inhibitory activity against the proliferation of the human acute myeloid leukemia cell line (OCI-AML3) having the NRAS mutant gene, and the effect thereof is remarkable. Therefore, it can be seen that the compound of the present invention is particularly effective as a therapeutic agent for acute myeloid leukemia (AML).

[2] = test system: Ba/F3 (N-Ras G12D); test: Inhibition of cell proliferation (GI50); type: cell-based; details: Mus musculus, BaF3; mt-NRAS (G12D) Ba/F3 cell line; read-out: Proliferation inhibitory activity (GI50, μM) Ba/F3 (N-Ras G12D)
Experimental: as §1

[3] = test system: Ba/F3 (parental); test: Inhibition of cell proliferation (GI50); type: cell-based; details: Mus musculus, BaF3; Ba/F3 (parental) cell line; read-out: Proliferation inhibitory activity (GI50, μM) Ba/F3 (parental)
Experimental: The inhibitory activities of the compounds of the present invention against the proliferation of the Ba/F3 (parental) cell line were measured and the GI50 values thereof were calculated.

[4] = biological target: ACK1 (Homo sapiens, UniProt Q07912); test: Kinase inhibitory activity, IC50; type: biochemical
Experimental: (§2) The inhibitory activities of the compounds of the present invention against two kinases, GCK and ACK1, were measured, and the IC50 values thereof were calculated. As a control, the following compound GNF7 was used.

[5] = biological target: T1, GCK (Homo sapiens, UniProt Q12851); test: Kinase inhibitory activity, IC50; type: biochemical
T1 sequence (Q12851 1-820): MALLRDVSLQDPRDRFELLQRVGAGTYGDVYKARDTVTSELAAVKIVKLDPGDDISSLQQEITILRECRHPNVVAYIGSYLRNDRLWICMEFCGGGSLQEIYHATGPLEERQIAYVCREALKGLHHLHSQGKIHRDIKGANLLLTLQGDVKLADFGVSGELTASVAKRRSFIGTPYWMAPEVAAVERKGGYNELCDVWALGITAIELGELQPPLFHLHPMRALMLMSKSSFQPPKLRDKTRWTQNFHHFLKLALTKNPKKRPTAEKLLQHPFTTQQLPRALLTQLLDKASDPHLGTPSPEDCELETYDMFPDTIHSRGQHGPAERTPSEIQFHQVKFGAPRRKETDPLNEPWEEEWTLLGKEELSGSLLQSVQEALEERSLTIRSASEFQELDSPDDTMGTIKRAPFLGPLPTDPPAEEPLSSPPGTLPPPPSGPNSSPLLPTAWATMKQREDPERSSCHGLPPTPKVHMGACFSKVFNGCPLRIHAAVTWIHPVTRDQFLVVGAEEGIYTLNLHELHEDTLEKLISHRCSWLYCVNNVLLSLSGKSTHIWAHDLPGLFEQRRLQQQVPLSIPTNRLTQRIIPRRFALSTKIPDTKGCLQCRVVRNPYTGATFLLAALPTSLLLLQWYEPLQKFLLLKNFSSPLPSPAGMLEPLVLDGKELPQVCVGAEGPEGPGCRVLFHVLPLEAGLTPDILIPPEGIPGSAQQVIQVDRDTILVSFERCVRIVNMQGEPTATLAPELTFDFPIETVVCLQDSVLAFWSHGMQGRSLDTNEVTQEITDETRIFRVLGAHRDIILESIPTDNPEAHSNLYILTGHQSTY
Experimental: as §2

ACK1, sequence (Q07912 whole entry): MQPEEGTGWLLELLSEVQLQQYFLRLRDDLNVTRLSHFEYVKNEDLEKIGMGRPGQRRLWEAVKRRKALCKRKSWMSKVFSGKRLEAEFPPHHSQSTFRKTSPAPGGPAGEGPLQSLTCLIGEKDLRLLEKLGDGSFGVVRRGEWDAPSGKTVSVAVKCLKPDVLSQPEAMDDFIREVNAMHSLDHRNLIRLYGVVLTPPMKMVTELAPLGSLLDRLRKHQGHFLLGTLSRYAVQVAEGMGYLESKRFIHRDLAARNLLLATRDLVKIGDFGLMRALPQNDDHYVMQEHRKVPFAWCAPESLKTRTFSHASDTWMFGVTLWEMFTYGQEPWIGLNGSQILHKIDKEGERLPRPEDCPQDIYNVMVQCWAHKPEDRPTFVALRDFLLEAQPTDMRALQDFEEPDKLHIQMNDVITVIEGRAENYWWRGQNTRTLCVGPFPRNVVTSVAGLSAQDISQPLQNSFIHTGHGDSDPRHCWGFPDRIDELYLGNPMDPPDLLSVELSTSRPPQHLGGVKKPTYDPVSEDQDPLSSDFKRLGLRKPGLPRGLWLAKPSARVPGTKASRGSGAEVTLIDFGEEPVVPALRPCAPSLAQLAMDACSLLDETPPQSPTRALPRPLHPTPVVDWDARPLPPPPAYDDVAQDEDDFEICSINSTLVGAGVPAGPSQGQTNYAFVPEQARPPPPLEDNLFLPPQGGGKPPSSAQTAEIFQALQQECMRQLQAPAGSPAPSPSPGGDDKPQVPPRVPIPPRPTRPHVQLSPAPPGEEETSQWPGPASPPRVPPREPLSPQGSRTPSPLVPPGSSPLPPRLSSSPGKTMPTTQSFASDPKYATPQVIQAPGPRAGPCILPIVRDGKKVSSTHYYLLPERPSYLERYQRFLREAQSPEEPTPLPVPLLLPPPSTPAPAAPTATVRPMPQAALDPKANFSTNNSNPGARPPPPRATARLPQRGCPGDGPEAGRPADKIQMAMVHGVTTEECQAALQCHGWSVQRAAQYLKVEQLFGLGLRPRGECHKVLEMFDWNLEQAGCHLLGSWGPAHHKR

GI50 [1]: < 0.5 µM
GI50 [2]: < 0.5 µM
IC50 [4]: < 100 nM
IC50 [5]: 100 to 1000 nM
SMILES: Cc1ccc(Nc2ncc3cc(-c4cc(NC(=O)c5cccc(C(F)(F)F)c5)ccc4C)ncc3n2)cn1 [Compound No. 4, N-(4-methyl-3-(2-((6-methylpyridin-3-yl)amino)pyrido[3,4-d]pyrimidin-6-yl)phenyl)-3-(trifluoromethyl)benzamide]
GI50 [3]: < 0.5 µM
